What all share (assay type): in vivo, mice
The test system of test [1] is CGRP. Nature of the test: CGRP immunofluorescence in dorsal horn after morphine treatment and withdrawal. Particulars: repeated morphine exposure (7 escalating i.p. doses). The protocol: (§1) Mice were anesthetized and perfused transcardially with cold saline followed by ice-cold 4% paraformaldehyde solution. The lumbar segment of the SC was dissected out and post-fixed at 4° C. for 4 h with the paraformaldehyde solution, then the Histo Prep (Fisher Scientific, Fair Lawn, N.J.) embedded blocks were sectioned on a Leica CM1850 cryostat (Leica Microsystems, Germany). Sections (10 μm) were thaw-mounted on to glass slides and allowed to air dry. The immunofluorescence staining was performed as previously described (Kerr et al, 2000). Endogenous peroxidases were blocked by incubating tissue sections with 0.3% hydrogen peroxide for 30 min and 3% normal goat serum for 20 min. […]
(§2) The morphologic details of the immunofluorescence staining on SC were studied under a fluorescence microscope (Olympus BX51WI; Olympus America Inc., Melville, N.Y.). […] Fos-immunoreactive neurons were counted in blind fashion. The number of Fos-like immunoreactive neurons in DH (laminae I-VI) was determined by averaging the counts made in 20 SC sections (L4-L5) for each group. To obtain quantitative measurements of CGRP immunofluorescence, 15-20 fields covering the entire DH in each group were evaluated and photographed at the same exposure time to generate the raw data. Fluorescence intensities of the different groups were analyzed using MicroSuite image analysis software (Olympus America Inc.). […]

The test system of test [2] is EphB1 receptor protein. Nature of the test: Western blot of EphB1 receptor protein in spinal cord. Particulars: SC. The protocol:
(§3) Western blot analysis was used to detect expression of EphB receptors, ephrinBs, and phosphorylated NR2B, ERK and CREB proteins in the SC. A total of 108 mice were used for Western blotting experiments (SC from 4 mice were pooled for each sample and each group consisted of 3 samples). The lumbar segments of the SC were quickly extracted and immediately frozen in liquid nitrogen, and stored at −80° C. The procedure used to quantify temporal changes in protein levels was similar to that previously described (Bundesen et al, 2003). In brief, protein precipitation procedures in conjunction with Western blots were used to detect protein bands with an enhanced chemiluminescent (ECL) detection procedure. Sequential precipitation procedures were used on tissue samples that were lysed in ice-cold (4° C.) lysis buffer [50 mM Tris, pH 7.5, containing 150 mM NaCl, 1% Triton X-100, 0.5% deoxycholate, 0.1% SDS, 0.2 mM EDTA, 10 mM NaF, […], 0.4 mM 4-(2-aminoethyl)-benzenesulfonyl fluoride, and 1 mM sodium orthovanadate. The protein concentration of the lysates was estimated using the method of BCA (Pierce, Ill.), and the total protein content between samples was equalized. […] Data were analyzed with the Molecular Imager (Gel Doc™ XR, 170-8170) and the associated software Quantity One-4.6.5 (Bio-Rad Laboratories, Hercules, Calif.).
On the technique in general: A western blot detects proteins with antibodies after separation by electrophoresis.

Test [3] has as its system p-NR2B. Nature of the test: Western blot of phosphorylated NR2B in spinal cord. Particulars: escalated morphine treatment; SC. The protocol: as §3
The test system of test [4] is p-ERK. Nature of the test: Western blot of phosphorylated ERK in spinal cord. Particulars: escalated morphine treatment; SC. The protocol:
as §3

Test [5] has as its system p-CREB. Nature of the test: Western blot of phosphorylated CREB in spinal cord. Particulars: escalated morphine treatment; SC. On the procedure:
as §3

Test [6] concerns ephrinB1. The test is described as follows: Western blot of ephrinB1 in spinal cord. Particulars: following escalating morphine treatment or morphine withdrawal; SC. The protocol:
as §3

In test [7] the test system is ephrinB2. Nature of the test: Western blot of ephrinB2 in spinal cord. Particulars: following escalating morphine treatment or morphine withdrawal; SC. The protocol: as §3
In test [8] the test system is phosphotyrosine (PY99) proteins. Nature of the test: Western blot of phosphotyrosine (PY99) proteins in spinal cord. Particulars: following escalating morphine treatment or morphine withdrawal; SC. The protocol:
as §3

Test [9] relates to c-Fos. Nature of the test: c-Fos immunostaining in dorsal horn during morphine withdrawal. Particulars: naloxone challenge after escalating morphine treatment. The protocol:
as §1, §2

For `CN1CC[C@]23c4c5ccc(O)c4O[C@H]2[C@@H](O)C=C[C@H]3[C@H]1C5` [morphine], the “expression of CGRP throughout the DH region of the SC” value in test [1] is on record as “greatly increased”. In addition, the “expression of EphB1 receptor protein” value in [2] (after escalating morphine treatment) is recorded as “significantly increased”. For the same molecule, the “level of p-NR2B protein” value in test [3] was “significant increases”. The “level of p-ERK protein” value in [4] is recorded as “significant increases”. For the same molecule, the “level of p-CREB protein” value in test [5] was “significant increases”. Also, the “expression of ephrinB1” value in test [6] is given as “failed to show significant changes”. Besides, the “expression of ephrinB2” value in test [7] was “failed to show significant changes”. In addition, the “expression of phosphotyrosine (PY99) proteins” value in test [8] is listed as “failed to show significant changes”.
With `C=CCN1CC[C@]23c4c5ccc(O)c4O[C@H]2C(=O)CC[C@@]3(O)[C@H]1C5` [naloxone], in test [9], the “number of Fos-like immunoreactive neurons in the dorsal horn” value was “significantly increased”. Moreover, the “morphine-induced increase in EphB1 receptor protein expression” value in test [2] (naloxone treatment after escalating morphine) was “did not significantly alter”.

The values above are taken from patent US20100111972A1, “Method for preventing or treating opiate tolerance and dependence” (priority 2008, published 2010).
